Type in all cases: cell-based, human
Assay [1] deals with Jurkat and SKW 6.4 cells. Kind of assay: Western analyses of proteins, Jurkat and SKW 6.4 cells. Here is the method:
Western analyses of DR4, DR5, Apo-2L, FADD, Caspase-8, c-FLIPL & S, BID, Caspase-9, Caspase-3, PARP, XIAP, clAP1, survivin and β-actin are performed using specific anti-sera or monoclonal antibodies according to previously reported protocols. Horizontal scanning densitometry was performed on Western blots by using acquisition into Adobe Photo Shop (Apple, Inc., Cupertino, Calif.) and analysis by the NIH Image Program (U.S. National Institutes of Health, Bethesda, Md.). The expression of β-actin was used as a control.

Assay [2] relates to SKW 6.4 and Jurkat cells. Kind of assay: Flow cytometry analysis of cell cycle status. The conditions noted are these: 24 hours. The procedure: The flow cytometric evaluation of the cell cycle status is performed according to a previously described method. The percentage of cells in the G1, S-phase, and G2/M phases are calculated using Multicycle software (Phoenix Flow Systems, San Diego, Calif.).
(In general: In flow cytometry, cells or beads pass a laser one at a time.)

The test system of assay [3] is DR5 promoter associated with acetylated histones H3 and H4. Kind of assay: ChIP assay, DR5 promoter. The conditions noted are these: 8 hours, Jurkat cells. The procedure:
ChIP analysis was performed by a slight modification of a previously described method. Cells are incubated overnight at a density of 0.25×10^8 cells/ ml at 37° C. with 5% CO2. […] Formaldehyde was then added to the cells to a final concentration of 1%, and the cells are gently shaken at room temperature for 10 minutes. Following this, the cells are pelleted, suspended in 1 mL of ice-cold PBS containing protease inhibitors (Complete, Boehringer Mannheim). Cells are again pelleted, re-suspended in 0.5 mL of SDS lysis buffer (1% SDS/1.0 mM EDTA/50 mM Tris.HCl, pH 8.1) and incubated on ice for 20 minutes. Lysates are sonicated with 15-second bursts. Debris was removed from samples by centrifugation for 20 minutes at 15,000×g at 4° C. An aliquot of the chromatin preparation (100 μL) was set aside and designated as Input Fraction. […] Immunoprecipitated DNA (both immunoprecipitation samples and Input) was recovered by phenol/chloroform extraction and ethanol precipitation and analyzed by PCR. […] The optimal reaction conditions for PCR are determined for each primer pair. […] The ratio between the immunoprecipitated DNA and Input DNA was calculated for each treatment and primer set. The fold increases after treatment with LAQ824 was calculated from the indicated ratio.

Assay [4] deals with Apo-2L/TRAIL-induced DISC. Kind of assay: Apo-2L/TRAIL-induced DISC analysis. The conditions noted are these: LAQ824 100 nM for 24 hours followed by Apo-2L/TRAIL (100 ng/mL for two hours) versus Apo-2L/TRAIL; not c-FLIPL. Here is the method: Untreated or LAQ824 treated SKW 6.4 or Jurkat cells are suspended at a final concentration of 10^6 cells/mL in a pre-warmed, complete RPMI media. Cells are treated with 100 ng/mL Apo-2L/TRAIL for 2 hours at 37° C, followed by washing with 1 mL of ice-cold PBS. Cells are lysed in 500 μL lysis buffer (25 mM Tris-HCl, pH 7.2, 150 mM NaCl, 25 mM NaF, 1 mM benzamidine, 1.0% Triton X-100, 2 μg/mL aprotinin 2 μg/mL leupeptin, 1 μg/mL pepstin-A and 0.1 μg/mL PMSF) for 30 minutes on ice. In the untreated controls, 100 ng/mL Apo-2L/TRAIL was added after lysis of cells, to immunoprecipitate non-stimulated Apo-2L/TRAIL receptors. One-hundred micrograms (100 μg) of the lysates was incubated at 4° C. for 2 hours with 1 μg each of anti-Apo-2L/TRAIL receptor 1 & 2 (DR4 and DR5) antibodies, provided by Immunex Corp., Seattle Wash. The immune-complexes are incubated overnight at 4° C. with 20 μL of protein A-agarose beads (Roche, Indianapolis, Ind.). The beads are recovered by centrifugation and washed twice with the lysis buffer. The pellet was re-suspended in the sample buffer and analyzed by SDS-PAGE and immunoblot analysis using antibodies against caspase-8, DR5, DR4 and FADD.

Molecules are shown by their SMILES.

As for `O=C(/C=C/c1ccc(CN(CCO)CCc2c[nH]c3ccccc23)cc1)NO` [LAQ824, N-hydroxy-3-[4-[[(2-hydroxyethyl)[2-(1H-indol-3-yl)ethyl]-amino]methyl]phenyl]-2E-2-propenamide], in assay [1] (50 nM or 200 nM, 24 hours, Jurkat and SKW 6.4 cells), the “acetylation of histone H3 and histone H4” value is “increased”. Moreover, in assay [1] (50 nM, SKW 6.4 and Jurkat cells), the “intracellular levels of p27” value is “increase”. For the same molecule, in assay [1] (200 nM, both cell-types), the p27 levels result is on record as “attenuated”. For the same molecule, the “Apo-2L/TRAIL, DR4 and DR5 levels” value in assay [1] (24 hours, SKW 6.4 and Jurkat cells) is “induces”. In assay [1] (SKW 6.4 and Jurkat cells), the “levels of Bcl-xL, Bcl-2, XIAP, c-IAP and survivin” value is on record as “attenuates”; the “levels of FLIPL and FLIPS” value is “attenuates”. Moreover, in assay [1] (SKW 6.4 cells), the “levels of p21” value was “dose-dependent increase”. In addition, in assay [2], the “cells in the S phase of the cell cycle” value is on record as “decline” and the “percentage of cells in the G1 phase” value is “markedly increases”. Moreover, in assay [3] (first of 'respectively' (100 nM / H3)), the “increase of DR5 promoter associated with acetylated histones H3 and H4” value was determined as 3.3 fold. Besides, the “increase of DR5 promoter associated with acetylated histones H3 and H4” value in assay [3] (second of 'respectively' (200 nM / H4)) came to 5.7 fold. The “recruitment of FADD and caspase-8 into the immunoprecipitates of DR4 & DR5” value in assay [4] is on record as “more recruitment”.

For the origin of these results see patent publication US20070258972A1, “Combination of a Histone Deacetylase Inhibitor with a Death Receptor Ligand” (priority 2003, published 2007).
